Laboratory results published in ChEMBL document CHEMBL2057195, “Design and synthesis of a novel pyrrolidinyl pyrido pyrimidinone derivative as a potent inhibitor of PI3Kα and mTOR” (Bioorg Med Chem Lett, 2012).
Converted amounts (≈) assume the structure as drawn.

Tests used:
[1] = physchem; conditions: buffer, pH 6.5
Description: Apparent kinetic solubility of the compound at pH 6.5

[2] = target: Phosphatidylinositol 4,5-bisphosphate 3-kinase catalytic subunit alpha isoform (Mus musculus, UniProt P42337)
Description: Inhibition of mouse PI3Kalpha

[3] = target: Serine/threonine-protein kinase mTOR (Homo sapiens, UniProt P42345)
[4] = Clearance in rat liver microsomes; type: ADME, Microsome; conditions: read-out: CLH
[5] = Oral bioavailability in rat at 5 mg/kg; type: ADME, organism-based; conditions: in vivo
[6] = test system: Liver microsomes; assay: Drug metabolism in human liver microsomes assessed as CYP450-mediated GSH adduct formation in absence of GSH; type: ADME, Microsome
[7] = Volume of distribution at steady state in rat at 2 mg/kg, iv; type: ADME, organism-based; parameters: dose 2 mg/kg, route intravenous; conditions: in vivo, read-out: Vdss
[8] = Clearance in rat at 2 mg/kg, iv; type: ADME, organism-based; parameters: dose 2 mg/kg, route intravenous; conditions: in vivo
[9] = Cmax in rat at 5 mg/kg, po; type: ADME, organism-based; parameters: dose 5 mg/kg, route oral; conditions: in vivo
[10] = Half life in rat at 2 mg/kg, iv; type: ADME, organism-based; parameters: dose 2 mg/kg, route intravenous; conditions: in vivo
[11] = test system: Liver microsomes; assay: Drug metabolism in human liver microsomes assessed as CYP450-mediated 4-(2-amino-4-methyl-7-oxo-6-(1H-pyrazol-4-yl)pyrido[2,3-d]pyrimidin-8(7H)-ylamino)butanoic acid formation; type: ADME, Microsome
[12] = test system: Liver microsomes; assay: Drug metabolism in human liver microsomes assessed as CYP450-mediated GSH adduct formation in presence of GSH; type: ADME, Microsome

Sequence of Phosphatidylinositol 4,5-bisphosphate 3-kinase catalytic subunit alpha isoform (P42337 whole entry, canonical isoform): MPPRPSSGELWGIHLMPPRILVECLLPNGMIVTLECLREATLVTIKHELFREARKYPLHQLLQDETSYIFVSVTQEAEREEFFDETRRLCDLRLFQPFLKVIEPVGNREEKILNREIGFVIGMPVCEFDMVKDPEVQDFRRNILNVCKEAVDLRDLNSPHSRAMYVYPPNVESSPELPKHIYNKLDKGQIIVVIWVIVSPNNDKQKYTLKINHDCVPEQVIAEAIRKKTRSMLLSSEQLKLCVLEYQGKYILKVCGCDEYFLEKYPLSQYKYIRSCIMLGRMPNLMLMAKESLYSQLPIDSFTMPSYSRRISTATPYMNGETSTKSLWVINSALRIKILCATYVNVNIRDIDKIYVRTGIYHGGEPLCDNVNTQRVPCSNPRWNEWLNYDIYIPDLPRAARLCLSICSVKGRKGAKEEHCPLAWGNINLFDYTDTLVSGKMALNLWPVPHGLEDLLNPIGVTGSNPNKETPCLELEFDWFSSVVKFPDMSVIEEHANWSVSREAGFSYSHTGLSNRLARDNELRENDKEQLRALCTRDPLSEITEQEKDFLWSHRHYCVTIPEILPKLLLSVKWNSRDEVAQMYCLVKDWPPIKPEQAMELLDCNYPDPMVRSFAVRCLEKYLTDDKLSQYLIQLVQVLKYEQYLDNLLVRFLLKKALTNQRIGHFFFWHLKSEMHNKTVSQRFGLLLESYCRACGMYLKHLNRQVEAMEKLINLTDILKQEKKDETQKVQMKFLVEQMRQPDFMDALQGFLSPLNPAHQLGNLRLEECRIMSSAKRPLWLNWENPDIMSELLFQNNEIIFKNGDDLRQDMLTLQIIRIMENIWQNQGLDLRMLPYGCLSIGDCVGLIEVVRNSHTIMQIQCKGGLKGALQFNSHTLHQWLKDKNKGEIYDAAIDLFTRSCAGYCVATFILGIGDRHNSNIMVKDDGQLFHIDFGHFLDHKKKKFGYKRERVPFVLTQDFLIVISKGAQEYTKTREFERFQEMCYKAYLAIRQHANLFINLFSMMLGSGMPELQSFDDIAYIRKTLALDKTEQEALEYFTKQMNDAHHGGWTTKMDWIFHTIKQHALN

| Compound | solubility kinetic [1] [µM] | Ki [2] [µM] | Ki [3] [µM] | also measured |
| --- | --- | --- | --- | --- |
| Cc1nc(N)nc2c1cc(-c1cn[nH]c1)c(=O)n2C(C)C | 43.4 (≈ 12.3 µg/mL) | 0.0135 | 0.0235 | microsomal CLint [4]: 349 µL/min/mg |
| COc1ccc(-c2cc3c(C)nc(N)nc3n(C3CCC3)c2=O)cn1 | 11.1 (≈ 3.74 µg/mL) | – | 0.0764 | – |
| Cc1nc(N)nc2c1cc(-c1cn[nH]c1)c(=O)n2NCC(C)C | – | 0.827 | – | – |
| Cc1nc(N)nc2c1cc(-c1cn[nH]c1)c(=O)n2C1CC1 | 16.7 (≈ 4.71 µg/mL) | 0.036 | 0.19 | – |
| Cc1nc(N)nc2c1cc(-c1cn[nH]c1)c(=O)n2N1CCCC1 | 43.1 (≈ 13.4 µg/mL) | 0.0125 | 0.0106 | bioavailability [5]: 52%; Drug metabolism [6]: Not Active; Vd [7]: 2.9 L/kg; clearance [8]: 36.3 mL/min/kg; Cmax [9]: 0.144 ng/mL; half-life [10]: 54 min; Drug metabolism [11]: Active; Drug metabolism [12]: Not Active |

Further compounds by falling Ki [2], results first:

| solubility kinetic [1] [µM] | Ki [2] [µM] | Ki [3] [µM] | Compound | also measured |
| --- | --- | --- | --- | --- |
| 434 (≈ 136 µg/mL) | 0.138 | – | CCN(CC)n1c(=O)c(-c2cn[nH]c2)cc2c(C)nc(N)nc21 | – |
| 16.2 (≈ 5.24 µg/mL) | 0.026 | – | COc1ccc(-c2cc3c(C)nc(N)nc3n(C3CC3)c2=O)cn1 | – |
| – | 0.01 | – | COc1ccc(-c2cc3c(C)nc(N)nc3n(N3CCCC3)c2=O)cn1 | – |
| 13 (≈ 3.85 µg/mL) | 0.007 | 0.0512 | Cc1nc(N)nc2c1cc(-c1cn[nH]c1)c(=O)n2C1CCC1 | – |
| 3.94 (≈ 1.38 µg/mL) | 0.00156 | 0.142 | COc1ccc(-c2cc3c(C)nc(N)nc3n(C3CCCC3)c2=O)cn1 | – |
